We go through four molecules from article PMC10143848 (Viruses, 2023).

In data set [1] the test system is HSV-1 B2006.
Data set [2] concerns RSV A2. The experiment in a line: Adsorption and penetration assay, RSV A2. The data set is classed as cell-based, Human RSV. Particulars: A549 cells.
The test system of a further data set is NF-κB signaling pathway. The data set can be described thus: NF-κB-LUC reporter gene assay in RSV A2-infected cells. The data set is classed as cell-based. Particulars: Hep-2, A549, J774A.1 cells infected with RSV A2 moi 1, 6 h; A18 25 μg/mL, BAY 11-7085 10 mg/mL (so in the source). (Reporter assays use an easily measured gene product as a stand-in for the process of interest.)

Data set [3] deals with HSV-1 Field. The experiment in a line: microbe, parasite or virus in culture. As to conditions: Human alphaherpesvirus 1, HCLE, 24 h.
The subject of data set [4] is SARS-CoV-2.
Data set [5] concerns IL-6, IL-8, and TNF-α. The experiment in a line: Cytokine determination by ELISA in RSV A2-infected cells. It is filed as cell-based. As to conditions: RSV A2 moi 1, 24 h, A18 25 mg/mL, BAY 11-7085 10 mg/mL (so in the source); for IL-6 production vs RSV-infected control cells: Hep-2, A549, J774A.1 cells; for TNF-α production vs RSV-infected control cells: J774A.1 macrophages; for IL-8 production vs RSV-infected control cells: epithelial cells (Hep-2, A549). For orientation: ELISA stands for enzyme-linked immunosorbent assay.

The next data set concerns SARS-CoV-2 spike protein. More on the design: method as in ref 37 = [37]. Particulars: molecular docking and dynamics simulation; cited from earlier work.
Data set [6] deals with RSV A2. The experiment in a line: RSV qRT-PCR assay (viral RNA synthesis). Particulars: A549 and Hep-2 cells, A18 25 mg/mL (so in the source), 6 h, 15 h and 24 h p.i. It is filed as cell-based, Human RSV. For orientation: In qPCR the cycle at which signal appears reflects the starting amount.
Data set [7] has as its system airway hyperreactivity (AHR). More on the design: method as in ref 14 = [14]. Particulars: i.p. (6 mg/kg/day) and i.n. (3 mg/kg/day), mouse models of steroid-resistant and severe asthma; cited from earlier work.
Data set [8] concerns HSV-1 B2006. The experiment in a line: microbe, parasite or virus in culture. As to conditions: Human alphaherpesvirus 1, HCLE, 24 h.
In data set [9] the test system is Canine Coronavirus.
Another data set relates to RSV line 19 and A2. The experiment in a line: Pulmonary RSV infection in mouse model. The data set is classed as in vivo, Balb/C mice.
The test system of data set [10] is IL-6, IL-8, and TNF-α. The data set can be described thus: Cytokine determination by ELISA in TLR2/6 and TLR3 ligand-stimulated cells. Particulars: A549, Hep-2, J774A.1; TLR2/6 and TLR3 ligands for 6 h / 8 h (Fig. S3); A18 25, BAY 11-7085 10. The data set is classed as cell-based.
Data set [11] relates to RSV A2. The experiment in a line: Virus yield inhibition assay, RSV A2. It is filed as cell-based. As to conditions: human respiratory syncytial virus, moi 0.1, 24 h, virus yield by plaque assay.
The subject of data set [12] is RSV A2. The experiment in a line: Immunofluorescence, RSV gF expression in infected cells. The data set is classed as cell-based, Human RSV. Particulars: RSV A2 moi 1, 25 μg/mL of A18, 24 h p.i.
The test system of data set [13] is HSV-1 Field.
Another data set has as its system RSV Line 19. The experiment in a line: microbe, parasite or virus in culture. Particulars: human respiratory syncytial virus.
Another data set in a line: in vitro. The data set is classed as cell-based. As to conditions: human (HEp-2, A549, HCLE, Calu-3); cat (CRFK).
Data set [14] concerns SARS-CoV-2. It is filed as cell-based.
Data set [15] deals with Canine Coronavirus. The experiment in a line: microbe, parasite or virus in culture. Particulars: Alphacoronavirus 1, CRFK, 24 h.
For data set [16], the system named is IL-6, IL-4, IL-17A, IFN-γ. The experiment in a line: Pulmonary cytokines qRT-PCR in RSV-infected mice. As to conditions: RSV-infected mice treated with A18, day 8 p.i. It is filed as in vivo, Balb/C mice.
The test system of data set [17] is HSV-1 KOS. The data set can be described thus: microbe, parasite or virus in culture. Particulars: Human alphaherpesvirus 1, HCLE, 24 h.
Data set [18] relates to SARS-CoV-2. The experiment in a line: microbe, parasite or virus in culture. As to conditions: Severe acute respiratory syndrome coronavirus 2, Calu-3, 24 h.
Data set [19] deals with HSV-1 KOS.
Data set [20] concerns HSV-1 KOS. The experiment in a line: Adsorption and penetration assay, HSV-1 KOS. Particulars: HCLE cells. It is filed as cell-based.
The subject of data set [21] is SARS-CoV-2. The experiment in a line: Adsorption and penetration assay, SARS-CoV-2. It is filed as cell-based. Particulars: calu-3 cells.
Data set [22] relates to SARS-CoV-2 viral main protease. More on the design: method as in ref 36 = [36]. Particulars: in silico finding; compounds from E. purpurea; cited from earlier work.

For `Oc1cc(O)c2cc(O)c(-c3ccc(O)c(O)c3)[o+]c2c1` [A18, Cyanidin chloride], the “SI (ratio CC50/EC50)” value with HSV-1 B2006 [1] was found to be 43; with SARS-CoV-2 [4] it was 23; in the data set on Canine Coronavirus [9], 26; in the data set with HSV-1 Field [13], 26; in the data set on HSV-1 KOS [19], 46. Besides, the “virus adsorption: virus yield after treatment during binding stage” value in the data set with RSV A2 [2] (RSV A2 moi 1, 25 μg/mL of A18, 1 h at 4 °C) is on record as “significant reduction of viral plaque formation”; in the data set on HSV-1 KOS [20] (HSV-1 KOS moi 1, 25 μg/mL of A18, 1 h at 4 °C) it was “significant reduction of viral plaque formation”; in the data set on SARS-CoV-2 [21] (SARS-CoV-2 moi 1, 25 μg/mL of A18, 1 h at 4 °C), “significant reduction of viral plaque formation”. For the same molecule, the “virus internalization: viral infectivity after treatment during internalization” value in the data set with RSV A2 [2] (RSV A2 moi 1, 25 μg/mL of A18, 2 h at 37 °C) was “did not reduce viral infectivity”; in the data set with HSV-1 KOS [20] (HSV-1 KOS moi 1, 25 μg/mL of A18, 2 h at 37 °C), “did not reduce viral infectivity”; in the data set with SARS-CoV-2 [21] (SARS-CoV-2 moi 1, 25 μg/mL of A18, 2 h at 37 °C) it was “did not reduce viral infectivity”. In addition, in the data set on NF-κB signaling pathway, the “NF-κB activation (NF-κB-LUC luciferase activity)” value is recorded as “strongly inhibited”. In addition, the EC50 came out at 7.6 ± 0.05 µg/mL with HSV-1 Field [3]; 4.6 ± 0.05 µg/mL in the data set with HSV-1 B2006 [8]; 8.5 ± 0.1 µg/mL in the data set on RSV A2 [11] (RSV A2 in A549 cells); 3 ± 0.06 µg/mL in the data set on RSV A2 [11] (RSV A2 in HEp-2 cells); 9.8 ± 0.08 µg/mL in the data set on RSV Line 19 (A549, 24 h); 8 ± 0.1 µg/mL with RSV Line 19 (HEp-2, 24 h). Moreover, the EC50 in the data set with Canine Coronavirus [15] is 7.7 ± 0.1 µg/mL; in the data set on HSV-1 KOS [17], 5.5 ± 0.1 µg/mL; in the data set on SARS-CoV-2 [18] it was 8.9 ± 0.09 µg/mL. Besides, the “IL-6 production vs RSV-infected control cells” value with IL-6, IL-8, and TNF-α [5] is “significantly reduced”. In addition, the “TNF-α production vs RSV-infected control cells” value with IL-6, IL-8, and TNF-α [5] is given as “significantly reduced”. In the data set with IL-6, IL-8, and TNF-α [5], the “IL-8 production vs RSV-infected control cells” value is given as “significantly reduced”. For the same molecule, the “predicted interaction with SARS-CoV-2 spike protein” value in the data set with SARS-CoV-2 spike protein is “interacts with spike protein”. Further, the “relative contents of viral RNA vs untreated infected cells” value in the data set with RSV A2 [6] is listed as “significantly reduced”. Besides, in data set [7], the “airway hyperreactivity (AHR)” value was “alleviated airway hyperreactivity (AHR)”. Besides, the “weight loss vs untreated infected controls” value in the data set on RSV line 19 and A2 (Balb/c mice, RSV A2 and line 19, A18 6 mg/kg i.p. or 3 mg/kg i.n. daily days 0-4, day 2 p.i. and entire course) is listed as “significantly less weight loss”. Further, the “RSV titers in the lung vs untreated animals” value in the data set with RSV line 19 and A2 (Balb/c mice, RSV A2 and line 19, A18 6 mg/kg i.p. or 3 mg/kg i.n. daily, day 4 p.i.) is “significantly lower”. The “lung histology, semiquantitative histological scoring (Inflammation Index)” value with RSV line 19 and A2 (RSV A2 and line 19 infected mice, H&E-stained lungs, day 8 p.i.) is “significantly reduced RSV-induced pathological damage”. The “IL-6 production in TLR ligand-stimulated cells” value in the data set with IL-6, IL-8, and TNF-α [10] is recorded as “significantly inhibited”. In the data set with IL-6, IL-8, and TNF-α [10], the “IL-8 production in TLR ligand-stimulated cells” value is “significantly inhibited”. Further, in the data set on IL-6, IL-8, and TNF-α [10], the “TNF-a production in TLR ligand-stimulated cells” value is recorded as “significantly inhibited”. The “infected and treated cells expressing gF” value is 23% in the data set on RSV A2 [12] (A549 cells, infected control 93%) and 10% in the data set with RSV A2 [12] (HEp-2 cells, infected control 96%). The CC50 at 24 h in the data set “in vitro” was more than 200 µg/mL. Besides, in the data set with SARS-CoV-2 [14], the “infected and treated cells expressing Spike protein” value was found to be 7%. For the same molecule, in data set [16], the “pulmonary IFN-g levels, treated vs not treated” value is on record as “did not observe statistical differences”. The “pulmonary IL-4 gene expression vs untreated infected animals” value in data set [16] is recorded as “significantly lower levels”. Moreover, the “pulmonary IL-6 gene expression vs untreated infected animals” value in [16] was “significantly lower levels”. In addition, the “pulmonary IL-17A gene expression vs untreated infected animals” value in data set [16] is reported as “significantly lower levels”.

Take `CC(C)(C)c1ccc(S(=O)(=O)/C=C/C#N)cc1` [BAY 11-7085, reference compound]: the “NF-κB activation (NF-κB-LUC luciferase activity)” value with NF-κB signaling pathway is “strongly inhibited”. In addition, in the data set on IL-6, IL-8, and TNF-α [5], the “IL-6 production vs RSV-infected control cells” value is “significantly reduced”, the “TNF-α production vs RSV-infected control cells” value is “significantly reduced” and the “IL-8 production vs RSV-infected control cells” value is reported as “significantly reduced”. In addition, in the data set on IL-6, IL-8, and TNF-α [10], the “IL-6 production in TLR ligand-stimulated cells” value is recorded as “significantly inhibited”, the “IL-8 production in TLR ligand-stimulated cells” value is “significantly inhibited” and the “TNF-a production in TLR ligand-stimulated cells” value is “significantly inhibited”.

For `O=C(O)CC(=O)OC[C@H]1O[C@@H](Oc2cc3c(O)cc(O)cc3[o+]c2-c2ccc(O)c(O)c2)[C@H](O)[C@@H](O)[C@@H]1O` [Cyanidin 3-(6″-malonylglucoside)], the “inhibitory potential against SARS-CoV-2 via inhibition of viral main protease” value in data set [22] is “good inhibitory potential”.

Take `OC[C@H]1O[C@@H](Oc2cc3c(O[C@@H]4O[C@H](CO)[C@@H](O)[C@H](O)[C@H]4O)cc(O)cc3[o+]c2-c2ccc(O)c(O)c2)[C@H](O)[C@@H](O)[C@@H]1O` [Cyanin]: the “inhibitory potential against SARS-CoV-2 via inhibition of viral main protease” value in data set [22] is “good inhibitory potential”.

As usually defined, the EC50 is the concentration needed to bring the measured effect to its halfway point. Low readings indicate a more potent agent, high ones a less potent agent. A word on the CC50: it is the concentration that lowers cell viability or growth by half. High values mean lower toxicity to the cells, low ones greater toxicity to the cells.
